Molecular target: PD-1/PD-L1 (Homo sapiens, UniProt Q9NZQ7)
Assay: TR-FRET PD-1/PD-L1 binding inhibition at the molecular level (free proteins)
Settings: Tag1-PD-L1 and Tag2-PD-1 proteins, twelve concentrations from 200 nM, 2 hours at room temperature, read-out: FRET assay (IC50)
Method in brief: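 HTRF read-out at 665/620 nm after 2 h at room temperature. Detection used anti-Tag1 Eu cryptate plus anti-Tag2 XL665 antibodies. Tagged PD-L1 and PD-1 proteins were pre-mixed with compound across twelve […] 1:2 dilutions starting at 200 nM.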

Chain of PD-1/PD-L1 (Q9NZQ7 19-238 limits assumed): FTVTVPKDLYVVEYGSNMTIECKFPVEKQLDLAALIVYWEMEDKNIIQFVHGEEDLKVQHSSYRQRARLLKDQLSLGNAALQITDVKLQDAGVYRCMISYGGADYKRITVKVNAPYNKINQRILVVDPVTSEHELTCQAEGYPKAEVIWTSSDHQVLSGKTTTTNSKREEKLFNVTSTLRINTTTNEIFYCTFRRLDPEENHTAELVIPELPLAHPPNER

Row | SMILES | IC50 [nM]
1 | O=C(Nc1cccc(-c2cccc(Nc3nc(C(F)(F)F)nc4cccnc34)c2Cl)c1Cl)c1cc2n(n1)CCC[C@@H]2N1CC(C(=O)O)C1 [Compound 277, (S)-1-(2-((2,2'-dichloro-3'-((2-(trifluoromethyl)pyrido[3,2-d]pyrimidin-4-yl)amino)-[1,1'-biphenyl]-3-yl)carbamoyl)-4,5,6,7-tetrahydropyrazolo[1,5-a]pyridin-4-yl)azetidine-3-carboxylic acid] | 10 to 100
2 | O=C(Nc1cccc(-c2cccc(Nc3nc(C(F)(F)F)nc4cccnc34)c2Cl)c1Cl)c1cc2n(n1)CCC[C@H]2N1CC(C(=O)O)C1 [Compound 278, (R)-1-(2-((2,2'-dichloro-3'-((2-(trifluoromethyl)pyrido[3,2-d]pyrimidin-4-yl)amino)-[1,1'-biphenyl]-3-yl)carbamoyl)-4,5,6,7-tetrahydropyrazolo[1,5-a]pyridin-4-yl)azetidine-3-carboxylic acid] | 10 to 100
3 | Cc1nc(Nc2cccc(-c3cccc(NC(=O)c4cc5n(n4)CCC[C@@H]5NC(C)(C)C(=O)O)c3Cl)c2Cl)c2ncccc2n1 [Compound 279, (S)-2-((2-((2,2'-dichloro-3'-((2-methylpyrido[3,2-d]pyrimidin-4-yl)amino)-[1,1'-biphenyl]-3-yl)carbamoyl)-4,5,6,7-tetrahydropyrazolo[1,5-a]pyridin-4-yl)amino)-2-methylpropanoic acid] | 10 to 100
4 | Cc1nc(Nc2cccc(-c3cccc(NC(=O)c4cc5n(n4)CCC[C@H]5NC(C)(C)C(=O)O)c3Cl)c2Cl)c2ncccc2n1 [Compound 280, (R)-2-((2-((2,2'-dichloro-3'-((2-methylpyrido[3,2-d]pyrimidin-4-yl)amino)-[1,1'-biphenyl]-3-yl)carbamoyl)-4,5,6,7-tetrahydropyrazolo[1,5-a]pyridin-4-yl)amino)-2-methylpropanoic acid] | < 10
5 | Cc1nc(Nc2cccc(-c3cccc(NC(=O)c4cc5n(n4)CCC[C@@H]5N4CC(C(=O)O)C4)c3Cl)c2Cl)c2ncccc2n1 [Compound 281, (S)-1-(2-((2,2'-dichloro-3'-((2-methylpyrido[3,2-d]pyrimidin-4-yl)amino)-[1,1'-biphenyl]-3-yl)carbamoyl)-4,5,6,7-tetrahydropyrazolo[1,5-a]pyridin-4-yl)azetidine-3-carboxylic acid] | < 10
6 | Cc1nc(Nc2cccc(-c3cccc(NC(=O)c4cc5n(n4)CCC[C@H]5N4CC(C(=O)O)C4)c3Cl)c2Cl)c2ncccc2n1 [Compound 282, (R)-1-(2-((2,2'-dichloro-3'-((2-methylpyrido[3,2-d]pyrimidin-4-yl)amino)-[1,1'-biphenyl]-3-yl)carbamoyl)-4,5,6,7-tetrahydropyrazolo[1,5-a]pyridin-4-yl)azetidine-3-carboxylic acid] | < 10
7 | O=C(Nc1cccc(-c2cccc(Nc3nccc4cc(CN5CC(F)C5)cnc34)c2Cl)c1Cl)c1cc2n(n1)CCC[C@@H]2N1CCC(C(=O)O)CC1 [Compound 283, (S)-1-(2-((2,2'-dichloro-3'-((3-((3-fluoroazetidin-1-yl)methyl)-1,7-naphthyridin-8-yl)amino)-[1,1'-biphenyl]-3-yl)carbamoyl)-4,5,6,7-tetrahydropyrazolo[1,5-a]pyridin-4-yl)piperidine-4-carboxylic acid] | 10 to 100
8 | O=C(Nc1cccc(-c2cccc(Nc3nccc4cc(CN5CC(F)C5)cnc34)c2Cl)c1Cl)c1cc2n(n1)CCC[C@H]2N1CCC(C(=O)O)CC1 [Compound 284, (R)-1-(2-((2,2'-dichloro-3'-((3-((3-fluoroazetidin-1-yl)methyl)-1,7-naphthyridin-8-yl)amino)-[1,1'-biphenyl]-3-yl)carbamoyl)-4,5,6,7-tetrahydropyrazolo[1,5-a]pyridin-4-yl)piperidine-4-carboxylic acid] | 10 to 100
9 | Cc1c(NC(=O)c2cc3n(n2)CCC[C@@H]3N2CCC(O)CC2)cccc1-c1cccc(Nc2nc(C(F)(F)F)nc3cccnc23)c1C [Compound 285, (S)-N-(2,2'-dimethyl-3'-((2-(trifluoromethyl)pyrido[3,2-d]pyrimidin-4-yl)amino)-[1,1'-biphenyl]-3-yl)-4-(4-hydroxypiperidin-1-yl)-4,5,6,7-tetrahydropyrazolo[1,5-a]pyridine-2-carboxamide] | 10 to 100
10 | Cc1c(NC(=O)c2cc3n(n2)CCC[C@@H]3N2CCC(O)CC2)cccc1-c1cccc(Nc2nc(C(F)F)nc3cccnc23)c1C [Compound 287, (S)-N-(3'-((2-(difluoromethyl)pyrido[3,2-d]pyrimidin-4-yl)amino)-2,2'-dimethyl-[1,1'-biphenyl]-3-yl)-4-(4-hydroxypiperidin-1-yl)-4,5,6,7-tetrahydropyrazolo[1,5-a]pyridine-2-carboxamide] | 10 to 100
11 | Cc1c(NC(=O)c2cc3n(n2)CCC[C@H]3N2CCC(O)CC2)cccc1-c1cccc(Nc2nc(C(F)F)nc3cccnc23)c1C [Compound 288, (R)-N-(3'-((2-(difluoromethyl)pyrido[3,2-d]pyrimidin-4-yl)amino)-2,2'-dimethyl-[1,1'-biphenyl]-3-yl)-4-(4-hydroxypiperidin-1-yl)-4,5,6,7-tetrahydropyrazolo[1,5-a]pyridine-2-carboxamide] | 10 to 100
12 | O=C(Nc1cccc(-c2cccc(Nc3nc(C(F)F)nc4cccnc34)c2Cl)c1Cl)c1cc2n(n1)CCC[C@@H]2N1CCC(C(=O)O)CC1 [Compound 289, (S)-1-(2-((2,2'-dichloro-3'-((2-(difluoromethyl)pyrido[3,2-d]pyrimidin-4-yl)amino)-[1,1'-biphenyl]-3-yl)carbamoyl)-4,5,6,7-tetrahydropyrazolo[1,5-a]pyridin-4-yl)piperidine-4-carboxylic acid] | < 10
13 | Cc1c(NC(=O)c2cc3n(n2)CCC[C@@H]3N2CCC(C(=O)O)CC2)cccc1-c1cccc(Nc2nc(C(F)F)nc3cccnc23)c1C [Compound 291, (S)-1-(2-((3'-((2-(difluoromethyl)pyrido[3,2-d]pyrimidin-4-yl)amino)-2,2'-dimethyl-[1,1'-biphenyl]-3-yl)carbamoyl)-4,5,6,7-tetrahydropyrazolo[1,5-a]pyridin-4-yl)piperidine-4-carboxylic acid] | 10 to 100
14 | Cc1c(NC(=O)c2cc3n(n2)CCC[C@H]3N2CCC(C(=O)O)CC2)cccc1-c1cccc(Nc2nc(C(F)F)nc3cccnc23)c1C [Compound 292, (R)-1-(2-((3'-((2-(difluoromethyl)pyrido[3,2-d]pyrimidin-4-yl)amino)-2,2'-dimethyl-[1,1'-biphenyl]-3-yl)carbamoyl)-4,5,6,7-tetrahydropyrazolo[1,5-a]pyridin-4-yl)piperidine-4-carboxylic acid] | < 10
15 | O=C(O)CN[C@H]1CCCn2nc(C(=O)Nc3cccc(-c4cccc(Nc5nc(C(F)F)nc6cc(CN7CC[C@@H](O)C7)cnc56)c4Cl)c3Cl)cc21 [Compound 293, 2-(((S)-2-((2,2'-dichloro-3'-((2-(difluoromethyl)-7-(((R)-3-hydroxypyrrolidin-1-yl)methyl)pyrido[3,2-d]pyrimidin-4-yl)amino)-[1,1'-biphenyl]-3-yl)carbamoyl)-4,5,6,7-tetrahydropyrazolo[1,5-a]pyridin-4-yl)amino)acetic acid] | 10 to 100
16 | O=C(Nc1cccc(-c2cccc(Nc3nc(C(F)F)nc4cc(CN5CC[C@@H](O)C5)cnc34)c2Cl)c1Cl)c1cc2n(n1)CCC[C@@H]2N1CCC(O)CC1 [Compound 295, (S)-N-(2,2'-dichloro-3'-((2-(difluoromethyl)-7-(((R)-3-hydroxypyrrolidin-1-yl)methyl)pyrido[3,2-d]pyrimidin-4-yl)amino)-[1,1'-biphenyl]-3-yl)-4-(4-hydroxypiperidin-1-yl)-4,5,6,7-tetrahydropyrazolo[1,5-a]pyridine-2-carboxamide] | 10 to 100
17 | O=C(Nc1cccc(-c2cccc(Nc3nc(C(F)F)nc4cc(CN5CC[C@@H](O)C5)cnc34)c2Cl)c1Cl)c1cc2n(n1)CCC[C@H]2N1CCC(O)CC1 [Compound 296, (R)-N-(2,2'-dichloro-3'-((2-(difluoromethyl)-7-(((R)-3-hydroxypyrrolidin-1-yl)methyl)pyrido[3,2-d]pyrimidin-4-yl)amino)-[1,1'-biphenyl]-3-yl)-4-(4-hydroxypiperidin-1-yl)-4,5,6,7-tetrahydropyrazolo[1,5-a]pyridine-2-carboxamide] | 10 to 100
18 | CC(C)c1nc(Nc2cccc(-c3cccc(NC(=O)c4cc5n(n4)CCC[C@@H]5N4CCC(C(=O)O)CC4)c3Cl)c2Cl)c2ncccc2n1 [Compound 297, (S)-1-(2-((2,2'-dichloro-3'-((2-isopropylpyrido[3,2-d]pyrimidin-4-yl)amino)-[1,1'-biphenyl]-3-yl)carbamoyl)-4,5,6,7-tetrahydropyrazolo[1,5-a]pyridin-4-yl)piperidine-4-carboxylic acid] | 100 to 1000
19 | CC(C)c1nc(Nc2cccc(-c3cccc(NC(=O)c4cc5n(n4)CCC[C@@H]5NC(C)(C)C(=O)O)c3Cl)c2Cl)c2ncccc2n1 [Compound 299, (S)-2-((2-((2,2'-dichloro-3'-((2-isopropyl-pyrido[3,2-d]pyrimidin-4-yl)amino)-[1,1'-biphenyl]-3-yl)carbamoyl)-4,5,6,7-tetrahydropyrazolo[1,5-a]pyridin-4-yl)amino)-2-methylpropanoic acid] | 10 to 100
20 | CC(C)c1nc(Nc2cccc(-c3cccc(NC(=O)c4cc5n(n4)CCC[C@@H]5N4CC(C(=O)O)C4)c3Cl)c2Cl)c2ncccc2n1 [Compound 301, (S)-1-(2-((2,2'-dichloro-3'-((2-isopropyl-pyrido[3,2-d]pyrimidin-4-yl)amino)-[1,1'-biphenyl]-3-yl)carbamoyl)-4,5,6,7-tetrahydropyrazolo[1,5-a]pyridin-4-yl)azetidine-3-carboxylic acid] | 100 to 1000
21 | CC(C)c1nc(Nc2cccc(-c3cccc(NC(=O)c4cc5n(n4)CCC[C@H]5N4CC(C(=O)O)C4)c3Cl)c2Cl)c2ncccc2n1 [Compound 302, (R)-1-(2-((2,2'-dichloro-3'-((2-isopropyl-pyrido[3,2-d]pyrimidin-4-yl)amino)-[1,1'-biphenyl]-3-yl)carbamoyl)-4,5,6,7-tetrahydropyrazolo[1,5-a]pyridin-4-yl)azetidine-3-carboxylic acid] | 10 to 100

Source: patent publication EP4755888A1 (ILAb Co., Ltd., priority 2023, dated 2025)
